4 compounds from US5587374A, “10(1-hydroxyethyl)-11-oxo-1-azatricyclo/7.2.0.0.^3.8/ undec-2-ene-2-carboxylic acid esters and a process for preparing thereof” (Glaxo SpA, priority 1990, dated 1996) can be followed below.

As usually defined, the ED50 is the dose that gives a 50% effect, or the effect in half of the subjects.

Each structure is given as a SMILES string.

One data set has as its system E. Coli. Description: protection tests using mice, orally administered compounds (E. Coli). Type of data set: in vivo, mice infected with E. Coli. The note with it: Escherichia coli, oral, protection test.
For the next data set, the system named is Staph. aureus. The data set is described as follows: protection tests using mice, orally administered compounds (Staph. aureus). The note with it: Staphylococcus aureus, in Mus musculus, po, read-out: ED50 Staph. aureus.
Data set [1] in a line: oral administration to mice, adverse effects. It counts as in vivo. The note with it: orally administered, doses up to 1000 mg/kg. From the text:
The compounds of the invention are also essentially non-toxic at therapeutically useful dose levels.

For `CO/N=C(\C(=O)N[C@@H]1C(=O)N2C(C(=O)OC(C)OC(C)=O)=C(COC(N)=O)CS[C@H]12)c1ccco1` (stereo partly drawn) [Cefuroxime axetil, cefuroxime axetil, reference compound], the ED50 in the data set with E. Coli was found to be 26 mg/kg; in the data set on Staph. aureus, 6 mg/kg.

With `CO[C@H]1CCC[C@H]2C1=C(C(=O)OC(C)OC(=O)OC(C)C)N1C(=O)[C@H]([C@@H](C)O)[C@@H]21` (stereo partly drawn) [Example 3, 1-(Isopropyloxycarbonyloxy)ethyl (4S,8S,9R,10S,12R)-4-methoxy-10-(1'-hydroxyethyl)-11-oxo-1-azatricyclo-[7.2.0.0^3,8]undec-2-ene-2-carboxylate], the ED50 in the data set on E. Coli and in the data set on Staph. aureus was less than 1 mg/kg in each case.

Regarding `CO[C@H]1CCC[C@H]2C1=C(C(=O)OC(C)OC(=O)OC1CCCCC1)N1C(=O)[C@H]([C@@H](C)O)[C@@H]21` (stereo partly drawn) [Example 1, 1-(Cyclohexyloxycarbonyloxy)ethyl (4S,8S,9R,10S,12R)-4-methoxy-10-(1'-hydroxyethyl)-11-oxo-1-azatricyclo-[7.2.0.0^3,8]undec-2-ene-2-carboxylate], the ED50 with E. Coli and in the data set on Staph. aureus was less than 1 mg/kg throughout. Besides, in data set [1], the adverse effects result is listed as “no adverse effects were observed”.

As for `CO[C@H]1CCC[C@H]2C1=C(C(=O)OCOC(=O)C(C)(C)C)N1C(=O)[C@H]([C@@H](C)O)[C@@H]21` [Example 10, [(1,1-Dimethyl-ethyl)carbonyloxy]methyl (4S,8S, 9R, 10S, 12R) -4-methoxy-10-(1'-hydroxyethyl)-11-oxo-1-azatricyclo[7.2.0.0^3,8]undec-2-ene-2-carboxylate], the ED50 in the data set on E. Coli and with Staph. aureus was less than 1 mg/kg each time.
